From a melting point compilation (Tetko et al.; mined from patent text by program, amines drawn as free bases though some values may be those of a salt)

SMILES | melting point [°C]
OC(CCCCCCCCCCOCc1ccccc1)c1ccc(OCc2ccccc2)c(OCc2ccccc2)c1 (centres undefined) | 50 to 52
C#CCn1c(-c2cc(Cl)nc(Cl)c2)nn(C(C)(C)C)c1=O | 107 to 109
COC1=CC(=O)C2CC(O[Si](C)(C)C)=CC(OC)C2C1=O (centres undefined) | 108 to 110
CCCCCCCCCCCCCCCCCCOc1cc(OCc2ccccc2)cc(C(=O)N(CC(=O)O)CC(=O)O)c1 | 93 to 95
O=C(O)CSc1cccc(CNC(=O)C2Cc3ccccc3N2S(=O)(=O)c2ccc(-c3cccc(C(F)(F)F)c3)cc2)c1 (centres undefined) | 75
CC(C)Oc1cc(F)nc(N)n1 | 66 to 68
Cc1cc([N+](=O)[O-])cnc1NCCCN | 93 to 95
O=[N+]([O-])c1ccc(-c2ccc([N+](=O)[O-])cc2C(F)(F)F)c(C(F)(F)F)c1 | 140
FC1(F)Oc2cccc(-c3n[nH]cc3I)c2O1 | 142
CC(=O)c1ccc2c(c1)C=CC(=O)CO2 | 92 to 93
CC(=O)C1=CCC2C3CCC4CC5OC5CC4(C)C3C(=O)CC12C (centres undefined) | 154 to 156
C=CCC(CO)C(O)c1ccccc1 (centres undefined) | 41 to 43
Cc1c(C)c(N2Cc3cc(Cl)c(Cl)cc3C2)c(C)c2c1OC(C)(C)C2c1ccccc1 (centres undefined) | 194 to 196
C=C(CC(O)C(=O)OCC)CC(NC=O)(C(=O)OCC)C(=O)OCC (centres undefined) | 68
COc1cccc(CC(=O)O)c1OCCCc1cn(-c2ncc(Cl)cc2Cl)nc1C(C)C | 105 to 106
CCN(CC)C(=O)c1ccsc1-c1ccc(F)cc1 | 62 to 63
NCCCCCc1nc2ccccc2[nH]1 | 101
CN1C(=O)[C@H](N)N=C(C2CCCCC2)c2ccccc21 | 130 to 133
CCOC(=O)C(NC(=O)NN1CC(=O)NC1=O)c1cccs1 (centres undefined) | 151 to 155
Brc1ccc(Br)c2nonc12 | 88 to 92
NC(=NCC(F)(F)F)Nc1cnn(-c2cccc(C(=O)NCCO)c2)n1 | 171 to 173
NC(=O)[C@H](Cc1ccccc1)N1C(=O)c2ccccc2C1=O | 211 to 215
OC(Cn1ccnc1)(c1ccc(-c2ccccc2)cc1)c1ccccc1Cl (centres undefined) | 222
O=C(O)c1ccccc1Nc1ccnn1Cc1ccccc1 | 190
CCCCCC1COc2cc(C3COC(C4COc5c(cc(F)c(C#N)c5F)C4)OC3)c(F)cc2C1 (centres undefined) | 111
ClCSc1n[nH]c(C(c2ccccc2)(c2ccccc2)c2ccccc2)n1 | 121 to 122
CS(=O)c1cc2ccccc2[nH]1 (centres undefined) | 140 to 144

SMILES | melting point [°C]
CCCC(=O)NC(C#N)C(=O)OCC (centres undefined) | 110
CCOCCNc1nc(C)c(CCO)c(=O)n1C | 194
CCOC(C)O[C@H]1C(=O)N(C(=O)OC(C)(C)C)[C@H]1c1ccccc1 (some centres undefined) | 90 to 91
CCN(CC)C(=O)N(C)C(=O)Nc1ccccc1 | 88 to 89.5
CCCCc1cn(CCCC)c(=O)n1Cc1ccc(-c2cnccc2-c2nnn[nH]2)cc1 | 128 to 130
CC(=O)Nc1ncc(SCC(=O)O)s1 | 210
CC[C@H](C)[C@@H](CO)NC(=O)[C@H](Cc1c[nH]cn1)NC(=O)[C@H](Cc1cccc2ccccc12)NC(=O)OCc1ccccc1 | 197 to 199
CCN(Cc1ccccc1)C(=O)Cc1c(-c2ccc(C)cc2)nc2cc(C)ccn12 | 220 to 222
CCOc1nc(C(=O)O)ccc1CN | 226 to 228
O=C(O)c1ccccc1I(=O)=O | 226 to 234
Cc1ccc(-c2cccc(/C=C/C(=O)Nc3ccc(Cn4ccnc4)cc3)c2)cc1 | 198 to 200
O=C(OC(c1ccccc1)c1ccccc1)C(=O)N1C(=O)[C@@H]2N=C(c3ccccc3)O[C@@H]21 | 182
CCN(CC)CCNC(=O)Cn1ncc(-c2ccccc2)c1-c1ccccc1 | 67 to 69
CC(=O)C(C)Nc1c(C)cc(C)c2nsnc12 (centres undefined) | 209 to 211
O=Nc1c(-c2ccccc2)nc2ccccn12 | 165 to 167
N#Cc1[nH]c(Br)c(-c2ccc(Cl)cc2)c1Br | 191 to 194
CCOC(=O)c1c(C(F)F)nc(C(F)(F)F)c(C(=O)OCC)c1N | 29 to 30
CC(C)(C)OC(=O)N1CCCC1C(=O)NCCC(N)=O (centres undefined) | 175
CN(C)C(=O)NC1CCCc2sccc21 (centres undefined) | 117 to 120
O=c1nc(-c2ccccn2)sc2ccc(O)cc12 | 313 to 315
Cc1cc(-c2ncc(OC3SCC(O)C(O)C3O)cc2F)ccn1 (centres undefined) | 143
CCCNC(=O)CP(=O)(O)O | 155 to 160
O=c1ccc(-c2ccc([N+](=O)[O-])c(C(F)(F)F)c2)n[nH]1 | 238 to 241
N#CC(C#N)CC(CC(F)(F)C(F)(F)C(F)(F)C(F)F)S(=O)(=O)C(F)(F)F (centres undefined) | 144 to 146
CCc1nn(CCO)c(CC)c1Oc1cc(F)cc(-n2cccn2)c1 | 120 to 122
CN1CC(NC(=S)NC(=O)c2ccccc2)CC2c3cccc4[nH]cc(c34)CC21 (centres undefined) | 224 to 225

Results, then the compound that gave them:

melting point [°C] | SMILES
115 to 116 | COC(=O)c1c(-c2ccc(OC)cc2)ccc2ccccc12
77 to 78 | CN(C)c1ccc(C2CCc3ccccc3O2)cc1 (centres undefined)
140 | COc1ccc(CN(C)CC=CCc2ccc(NC(=O)c3cccc4c(=O)c5ccccc5[nH]c34)cc2)cc1OC
> 270 | CCCn1c(=O)c2[nH]c(C3CCCC3)nc2n(CCc2ccc(NC(=O)C(C)C)cc2)c1=O
125 to 130 | Cc1ccc(-c2ccc(Cl)c(C(=O)NCC34CC5CC(CC(C5)C3)C4)c2)c(C(=O)O)n1
157 | CCCCCC1CCC(CCc2ccc(-c3ncc(O)cn3)c(F)c2F)CC1 (centres undefined)
96 | COC1CCN(C(=O)COc2cc(-c3ccccc3)nc3ccccc23)CC1
173 to 174 | NC(=O)N(O)CC#Cc1ccc(F)c(C2=N[C@H](c3ccccc3)CO2)c1
296 to 298 | O=C(NCc1ccc(Cl)cc1)c1nnc2ccc(CO)cc2c1O
176 | COCCOc1ccc2ccc(N)nc2n1
156 | CC[C@H]1C(=O)N(S(=O)(=O)c2ccc3ccccc3c2)[C@H]2CCN(C(=O)OCc3ccccc3)[C@H]12 (relative stereo)
105 to 106 | Fc1ccc(N2CCN(CCCOc3cccc(-c4nnco4)c3)CC2)cc1
161 to 162 | Cc1c(NC(=O)c2ccc(OC[C@@H]3CCCO3)cc2)ccc2cc(CNCC3CCOCC3)[nH]c12
183 to 184 | CCc1cnn(CC(=O)O)c1OCCn1cc(C(=O)NCc2ccc(C(F)(F)F)cc2)c(OC(C)C)n1
> 250 | O=C(O)c1ccc(-c2cccc(C(=O)O)c2)cc1
215 | CC(=O)Nc1ccc(C(=O)c2cccnc2)cc1
145 | CCOc1ccc([N+](=O)[O-])c(NN2CCN(C)CC2)c1
100 to 101 | O=C(O)c1nc(SC2CCCCC2)ccc1SC1CCCCC1
118 to 120 | N#Cc1cc(Cl)ccc1Oc1cccc(O)c1
96 to 98 | COC(=O)COc1ccc(Cn2c(-c3ccc(OC4CCCC4)cc3)c(C)c3cc(OCc4ccccc4)ccc32)cc1
168 to 170 | CCCc1ccccc1OCC(O)COc1cccc2oc(C(=O)O)cc(=O)c12 (centres undefined)
151 to 152 | CCOC(=O)c1cn(C)nc1NCc1ccc(-c2ccccc2C#N)cc1
61 to 63 | Cc1cc(Oc2ccc(Cc3ccccc3)cc2)cc(C)c1N

melting point [°C] | SMILES
169 to 170 | CCCCc1oc2ccccc2c1-c1ncc(-c2ccc3cc(OCc4ccc(C(=O)OC)cc4)ccc3c2)o1
121 to 122 | COC1(c2cccc(OCc3ccc(-n4ccnc4C)cc3F)c2)CCOCC1
133 to 134 | CCOC(=O)c1cn(Cc2ccc(OCc3nc(-c4ccco4)oc3C)cc2)nc1OCc1ccc(OCc2nc(-c3ccco3)oc2C)cc1
167 to 170 | CCCCn1c(=O)cc(NN)n(Cc2ccc(OC)cc2)c1=O
120 to 121 | Cc1oc(-c2ccccc2)nc1COc1nn(Cc2ccc(Oc3ccccc3)cc2)cc1CCC(=O)O
128 to 130 | C=CCC1Cn2c(ncc(C(=O)O)c2=O)-c2cc(OC)ccc21 (centres undefined)
173 to 174 | CCOC(=O)c1cc2cccc(NS(=O)(=O)c3ccsc3C(=O)OC)c2[nH]1
150 to 151 | COc1ccc(-c2cc(=O)n(Cc3ccc(F)cc3F)nc2-c2ccc(OC)cc2)cc1
300 to 301 | Cn1c(C(=O)Nc2cc3c(cn2)[nH]c2ccccc23)cc2ccccc21
205 to 206 | CCOC(=O)Nc1cc(C(=O)OC)c(O)c2ncc(Cc3ccc(F)cc3)cc12
324 to 327 | COc1ccc2c(c1)C(=O)c1ccc(C(=O)O)cc1S2(=O)=O
204 to 207 | COC(=O)c1c(OCc2ccc(-c3ccccc3-c3nnn[nH]3)cc2)cc(C)nc1Cl
123 to 126 | O=C(O)CC(NS(=O)(=O)c1ccc2ccccc2c1)c1ccccc1 (centres undefined)
105 | CCC1SC(=O)N(Cc2ccc(N)cc2)N=C1c1ccc(OC)c(OC)c1 (centres undefined)
132 to 135 | CC1=C(C(=O)Nc2cc(C(=O)OC(C)C)ccc2F)SCCO1
216 | O=C(Nc1cc(S(=O)(=O)N(CCO)CCO)sc1Cl)c1cnn2c(C(F)F)cc(-c3ccc(C(F)(F)F)cc3)nc12
121 to 125 | CC(=O)n1c(Br)cc(-c2ccc(F)cc2)c1-c1ccc(S(C)(=O)=O)cc1
127 to 129 | CCN(CC)C(=O)c1ccc(C)c(-c2nc(SC)nc3c2CNC(=O)N3c2c(F)cccc2F)c1
128 to 129 | O=[N+]([O-])c1ccc(OCCN2CCN(c3cc(Cl)nnc3Cl)CC2)cc1
156 to 158 | CCC(=O)OCc1ccc2oc(=O)c(C(=O)Oc3cncc(Cl)c3)cc2c1
175 to 177 | Cc1ccc(-c2nc(-c3ccc(C(=O)NCCCBr)cc3)cs2)cc1
203 to 204 | O=C(Nc1ccc(Oc2ccccc2)cc1)N1CCN(c2cc(C(F)(F)F)nc3ccccc23)CC1
180 to 182 | CCOC(=O)c1ccc(OCC)c(-c2ncc(C(=O)OCC)c(=O)[nH]2)c1
